# Data: PMC4996973, “Topology and structure of an engineered human cohesin complex bound to Pds5B” (Nature Communications, 2016)
# T1: Pds5B^10HIS (human, UniProt Q9NTI5 1-1447)
# T1 construct: Pds5B, human, recombinant; printed mass 165 kDa; source: sf9 cells (baculovirus), purified (Ni-NTA; imidazole removed by dilution and concentration or by size-exclusion chromatography on Superdex 200), freeze-thawed
# T1 sequence (looked up): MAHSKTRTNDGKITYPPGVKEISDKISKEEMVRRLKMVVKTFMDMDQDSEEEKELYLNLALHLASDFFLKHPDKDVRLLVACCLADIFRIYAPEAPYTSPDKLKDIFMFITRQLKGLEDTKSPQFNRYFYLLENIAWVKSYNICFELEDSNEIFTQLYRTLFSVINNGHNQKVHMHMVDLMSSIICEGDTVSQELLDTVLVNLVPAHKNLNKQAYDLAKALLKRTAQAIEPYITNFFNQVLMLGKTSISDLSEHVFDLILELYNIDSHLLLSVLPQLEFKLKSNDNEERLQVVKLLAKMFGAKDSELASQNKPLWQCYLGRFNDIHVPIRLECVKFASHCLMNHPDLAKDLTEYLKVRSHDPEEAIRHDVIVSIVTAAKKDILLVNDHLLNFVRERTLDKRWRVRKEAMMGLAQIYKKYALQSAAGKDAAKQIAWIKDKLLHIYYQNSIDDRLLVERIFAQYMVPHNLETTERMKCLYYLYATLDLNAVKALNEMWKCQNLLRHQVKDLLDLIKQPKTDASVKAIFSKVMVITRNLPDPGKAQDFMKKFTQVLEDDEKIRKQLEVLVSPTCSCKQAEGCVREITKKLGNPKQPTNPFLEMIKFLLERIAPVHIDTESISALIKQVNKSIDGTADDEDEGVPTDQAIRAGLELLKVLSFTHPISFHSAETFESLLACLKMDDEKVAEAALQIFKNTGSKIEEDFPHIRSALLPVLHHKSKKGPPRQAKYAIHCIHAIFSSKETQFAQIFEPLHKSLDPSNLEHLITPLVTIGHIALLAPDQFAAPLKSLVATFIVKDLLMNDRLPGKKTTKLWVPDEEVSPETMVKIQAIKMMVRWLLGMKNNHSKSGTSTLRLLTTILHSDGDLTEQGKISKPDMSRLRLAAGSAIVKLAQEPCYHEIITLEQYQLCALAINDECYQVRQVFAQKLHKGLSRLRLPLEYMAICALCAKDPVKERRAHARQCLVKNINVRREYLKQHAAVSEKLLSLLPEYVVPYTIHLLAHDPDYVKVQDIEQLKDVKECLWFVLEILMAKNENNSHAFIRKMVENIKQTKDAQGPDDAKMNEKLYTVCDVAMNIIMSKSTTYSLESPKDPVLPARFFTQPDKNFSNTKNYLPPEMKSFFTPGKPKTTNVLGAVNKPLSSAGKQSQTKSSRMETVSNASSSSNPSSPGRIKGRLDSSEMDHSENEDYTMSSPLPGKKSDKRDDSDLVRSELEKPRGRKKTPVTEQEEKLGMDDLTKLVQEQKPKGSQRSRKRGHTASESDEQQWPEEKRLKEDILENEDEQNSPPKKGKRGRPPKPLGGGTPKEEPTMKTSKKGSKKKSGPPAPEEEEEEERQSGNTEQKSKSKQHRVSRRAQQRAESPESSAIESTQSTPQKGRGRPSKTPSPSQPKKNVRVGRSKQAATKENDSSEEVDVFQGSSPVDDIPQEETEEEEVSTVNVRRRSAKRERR
# B1: SA1 (natural protein, human, UniProt Q8WVM7 1-1258, looked up)
# chain: MITSELPVLQDSTNETTAHSDAGSELEETEVKGKRKRGRPGRPPSTNKKPRKSPGEKSRIEAGIRGAGRGRANGHPQQNGEGEPVTLFEVVKLGKSAMQSVVDDWIESYKQDRDIALLDLINFFIQCSGCRGTVRIEMFRNMQNAEIIRKMTEEFDEDSGDYPLTMPGPQWKKFRSNFCEFIGVLIRQCQYSIIYDEYMMDTVISLLTGLSDSQVRAFRHTSTLAAMKLMTALVNVALNLSIHQDNTQRQYEAERNKMIGKRANERLELLLQKRKELQENQDEIENMMNSIFKGIFVHRYRDAIAEIRAICIEEIGVWMKMYSDAFLNDSYLKYVGWTLHDRQGEVRLKCLKALQSLYTNRELFPKLELFTNRFKDRIVSMTLDKEYDVAVEAIRLVTLILHGSEEALSNEDCENVYHLVYSAHRPVAVAAGEFLHKKLFSRHDPQAEEALAKRRGRNSPNGNLIRMLVLFFLESELHEHAAYLVDSLWESSQELLKDWECMTELLLEEPVQGEEAMSDRQESALIELMVCTIRQAAEAHPPVGRGTGKRVLTAKERKTQIDDRNKLTEHFIITLPMLLSKYSADAEKVANLLQIPQYFDLEIYSTGRMEKHLDALLKQIKFVVEKHVESDVLEACSKTYSILCSEEYTIQNRVDIARSQLIDEFVDRFNHSVEDLLQEGEEADDDDIYNVLSTLKRLTSFHNAHDLTKWDLFGNCYRLLKTGIEHGAMPEQIVVQALQCSHYSILWQLVKITDGSPSKEDLLVLRKTVKSFLAVCQQCLSNVNTPVKEQAFMLLCDLLMIFSHQLMTGGREGLQPLVFNPDTGLQSELLSFVMDHVFIDQDEENQSMEGDEEDEANKIEALHKRRNLLAAFSKLIIYDIVDMHAAADIFKHYMKYYNDYGDIIKETLSKTRQIDKIQCAKTLILSLQQLFNELVQEQGPNLDRTSAHVSGIKELARRFALTFGLDQIKTREAVATLHKDGIEFAFKYQNQKGQEYPPPNLAFLEVLSEFSSKLLRQDKKTVHSYLEKFLTEQMMERREDVWLPLISYRNSLVTGGEDDRMSVNSGSSSSKTSSVRNKKGRPPLHKKRVEDESLDNTWLNRTDTMIQTPGPLPAPQLTSTVLRENSRPMGDQIQEPESEHGSEPDFLHNPQMQISWLGQPKLEDLNRKDRTGMNYMKVRTGVRHAVRGLMEEDAEPIFEDVMMSSRSQLEDMNEEFEDTMVIDLPPSRNRRERAELRPDFFDSAAIIEDDSGFGMPMF
# notes: SA1, human (146 kDa printed)
# B2: Scc1^10HIS (natural protein, human, UniProt O60216 1-631, looked up)
# chain: MFYAHFVLSKRGPLAKIWLAAHWDKKLTKAHVFECNLESSVESIISPKVKMALRTSGHLLLGVVRIYHRKAKYLLADCNEAFIKIKMAFRPGVVDLPEENREAAYNAITLPEEFHDFDQPLPDLDDIDVAQQFSLNQSRVEEITMREEVGNISILQENDFGDFGMDDREIMREGSAFEDDDMLVSTTTSNLLLESEQSTSNLNEKINHLEYEDQYKDDNFGEGNDGGILDDKLISNNDGGIFDDPPALSEAGVMLPEQPAHDDMDEDDNVSMGGPDSPDSVDPVEPMPTMTDQTTLVPNEEEAFALEPIDITVKETKAKRKRKLIVDSVKELDSKTIRAQLSDYSDIVTTLDLAPPTKKLMMWKETGGVEKLFSLPAQPLWNNRLLKLFTRCLTPLVPEDLRKRRKGGEADNLDEFLKEFENPEVPREDQQQQHQQRDVIDEPIIEEPSRLQESVMEASRTNIDESAMPPPPPQGVKRKAGQIDPEPVMPPQQVEQMEIPPVELPPEEPPNICQLIPELELLPEKEKEKEKEKEDDEEEEDEDASGGDQDQEERRWNKRTQQMLHGLQRALAKTGAESISLLELCRNTNRKQAAAKFYSFLVLKKQQAIELTQEEPYSDIIATPGPRFHII
# notes: Scc1 (Rad21, Mcd1), human; also called Rad21; Mcd1
# Legend:
# [1] = molecular target: T2, bonsai cohesin trimer (Smc1^B, Smc3^B, Scc1) (Homo sapiens, UniProt Q14683+Q9UQE7, Q14683:DEL201-498/Q9UQE7:DEL205-491/Q14683:DEL676-977/Q9UQE7:DEL686-956); assay: differential scanning fluorimetry (thermal shift); type: binding; details: slowly hydrolysable ATP analogue; stabilises the complex; trimer inferred from context
# T2 construct: gene SMC1A; coiled coils of Smc1 and Smc3 truncated and replaced by two-residue linkers (superscript B = bonsai, not the SMC1B paralogue); Smc3^B-FLAG, Scc1-10HIS tags; co-expressed from baculovirus in Sf9; stoichiometric trimer, 222 kDa; with Double-strand-break repair protein rad21 homolog
# [2] = molecular target: T3, bonsai cohesin trimer (Smc1^B, Smc3^B, Scc1) (Homo sapiens, UniProt Q14683+Q9UQE7, Q9UQE7:K38A/Q14683:DEL201-498/Q9UQE7:DEL205-491/Q14683:DEL676-977/Q9UQE7:DEL686-956); assay: radiolabelled ATPase assay, thin layer chromatography of released […]-Pi; type: biochemical; details: labelled compound (γ-32P); ATP-binding region mutant, ATPase largely abolished
# T3 construct: gene SMC1A; coiled coils of Smc1 and Smc3 truncated and replaced by two-residue linkers (superscript B = bonsai, not the SMC1B paralogue); Smc3^B-FLAG, Scc1-10HIS tags; co-expressed from baculovirus in Sf9; stoichiometric trimer, 222 kDa; with Double-strand-break repair protein rad21 homolog
# [3] = molecular target: T2, bonsai cohesin trimer (Smc1^B, Smc3^B, Scc1); assay: as above; type: biochemical; details: labelled compound (γ-32P)
# Pds5B^10HIS [4] = molecular target: T1, Pds5B^10HIS; assay: cross-linking; chemical crosslinking followed by mass spectrometry of purified bonsai cohesin (co-expressed subunits) bound to Pds5B; 102 inter- and 244 intramolecular crosslinks; details in the Supplementary Methods; details: both partners purified
# Pds5B^10HIS [5] = molecular target: T1, Pds5B^10HIS; assay: negative staining EM, single-particle 3D reconstruction; GraFix-prepared complexes (0.1% glutaraldehyde gradient, ATPγS), uranyl formate stain; 3D models at 28-35 Å; densities assigned by difference maps; details: both partners purified
molecule,measurement,setting,value
Nc1ncnc2c1ncn2[C@@H]1O[C@H](COP(=O)(O)OP(=O)(O)OP(O)(O)=S)[C@@H](O)[C@H]1O [ATPγS],differential scanning fluorimetry (thermal shift),[1],"presence of the slowly hydrolyzable ATP-analogue ATPyS, as well as a near physiological pH improved the stability"
Nc1ncnc2c1ncn2[C@@H]1O[C@H](COP(=O)(O)OP(=O)(O)OP(=O)(O)O)[C@@H](O)[C@H]1O [ATP],"radiolabelled ATPase assay, thin layer chromatography of released 32P-Pi",[2],The single point mutation largely abolished bonsai cohesin's ATPase activity
same,"radiolabelled ATPase assay, thin layer chromatography of released 32P-Pi",[3],Bonsai trimers containing wild-type NBDs ... were able to hydrolyse ATP
B1,binding result,Pds5B^10HIS [4],binds
B2,binding result,Pds5B^10HIS [5],binds
